Test results taken from the NIST ThermoML archive (doi:10.1016/j.tca.2014.07.018).

Assay: molar heat capacity at constant pressure
Settings: 101.33 kPa, Crystal, Small (less than 1 g) adiabatic calorimetry

C1C2CC3CC1CC(c1nnn[nH]1)(C2)C3 [5-(1-adamantyl)tetrazole]
Settings	molar heat capacity at constant pressure [J/K/mol]
5 K	0.4912
10 K	3.942
15 K	9.695
20 K	16.01
25 K	22.15
30 K	27.84
35 K	32.99
40 K	37.67
45 K	42
50 K	46.01
60 K	53.34
70 K	60.13
80 K	66.67
90 K	73.18
100 K	79.7
120 K	92.76
140 K	106.3
160 K	120.6
180 K	136
200 K	152.5
220 K	170
240 K	188.4
260 K	207.4
280 K	225.3
298.15 K	240
300 K	241.6
320 K	256.9
340 K	272
360 K	287.6
370 K	295.6
